Here are results for 19 compounds from patent US7517874B2 (priority 2007, dated 2009).

Read-outs that look alike come from different tables or passages of the source.

Assay [1] concerns the target human CB1 receptor (hCB1) (Homo sapiens, UniProt P21554). Put plainly: cell-based. It is filed as cell-based. Particulars: for +/− HCB1: agonist or inverse agonist at hCB1. An outline of the steps: (§1)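 First, cells in IBMX-containing HEPES-buffered HBSS are raised to elevated cAMP with 2-8 μM NKH-477 for 30 min. Data are normalised to the forskolin and forskolin + 1 μM CP55,940 controls.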

Assay [2] deals with T1, rat CB2 receptor (rCB2) (Rattus norvegicus, UniProt Q9QZN9).
T1 sequence (Q9QZN9 1-360): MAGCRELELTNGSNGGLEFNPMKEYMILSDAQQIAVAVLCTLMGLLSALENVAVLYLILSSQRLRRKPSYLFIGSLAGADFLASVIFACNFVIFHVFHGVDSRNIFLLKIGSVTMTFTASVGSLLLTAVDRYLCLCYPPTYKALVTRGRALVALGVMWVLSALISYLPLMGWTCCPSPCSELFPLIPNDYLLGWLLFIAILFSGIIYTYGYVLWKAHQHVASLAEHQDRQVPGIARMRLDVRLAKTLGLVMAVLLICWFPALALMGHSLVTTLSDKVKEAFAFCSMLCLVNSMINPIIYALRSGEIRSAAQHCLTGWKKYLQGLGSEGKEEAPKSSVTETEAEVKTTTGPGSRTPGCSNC
Put plainly: cell-based. Particulars: for +/− RCB2: agonist or inverse agonist at rCB2. It is filed as cell-based. Put shortly: as §1

Where [3] appears, read: groups >100 nM-10 μM and >10 μM, cAMP, CHO-K1 hCB1, read-out: EC50 HCB1.

Chain of human CB1 receptor (hCB1) (P21554 whole entry): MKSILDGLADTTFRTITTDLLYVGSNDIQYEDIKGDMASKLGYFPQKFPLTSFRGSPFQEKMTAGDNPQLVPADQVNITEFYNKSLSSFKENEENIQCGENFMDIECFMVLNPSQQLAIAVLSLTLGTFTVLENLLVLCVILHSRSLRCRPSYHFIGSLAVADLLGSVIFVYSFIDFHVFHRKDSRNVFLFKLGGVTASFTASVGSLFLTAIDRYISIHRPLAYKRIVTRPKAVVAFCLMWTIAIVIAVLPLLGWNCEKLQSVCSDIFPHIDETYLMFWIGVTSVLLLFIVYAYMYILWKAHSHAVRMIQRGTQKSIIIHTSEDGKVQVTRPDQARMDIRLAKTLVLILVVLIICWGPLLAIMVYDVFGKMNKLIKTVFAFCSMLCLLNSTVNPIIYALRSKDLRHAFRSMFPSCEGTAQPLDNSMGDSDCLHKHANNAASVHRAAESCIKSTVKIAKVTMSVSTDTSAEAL

What is called EC50 is the concentration that produces a half-maximal response. Compound `CC(C)CN1CCn2c(-c3ccccc3)nc(C(=O)N[C@H](C(=O)N(C)C)C(C)(C)C)c2C1` [Compound 80, (S)-N-(1-(dimethylamino)-3,3-dimethyl-1-oxobutan-2-yl)-7-isobutyl-3-phenyl-5,6,7,8-tetrahydroimidazo[1,5-a]pyrazine-1-carboxamide] registered an EC50 in assay [1] greater than 10000 nM. For the same compound, the “+/− RCB2” value in assay [2] is “−”.

In the case of `CC(C)C[C@H](NC(=O)c1nc(-c2cc(Cl)c(F)cc2F)n2c1CN(C)CCC2)C(N)=O` [Compound 571, (S)-N-(1-amino-4-methyl-1-oxopentan-2-yl)-3-(5-chloro-2,4-difluorophenyl)-8-methyl-6,7,8,9-tetrahydro-5H-imidazo[1,5-a][1,4]diazepine-1-carboxamide], in assay [1], the “+/− HCB1” value is “+”. Also, the “+/− RCB2” value in assay [2] is “+”.

Regarding `CCCNC(=O)N1CCn2c(-c3ccccc3)nc(C(=O)N[C@H](C(=O)NC)C(C)(C)C)c2C1` [Compound 193, (S)-N1-(3,3-dimethyl-1-(methylamino)-1-oxobutan-2-yl)-3-phenyl-N7-propyl-5,6-dihydroimidazo[1,5-a]pyrazine-1,7(8H)-dicarboxamide], the 50% effective concentration (EC50) in assay [1] is greater than 10000 nM. For the same compound, the “+/− RCB2” value in assay [2] is “−”.

As for `CNC(=O)[C@H](CC(C)C)NC(=O)c1nc(-c2ccc(Cl)c(F)c2)n2c1CN(C)CC2` [Compound 277, (S)-3-(4-chloro-3-fluorophenyl)-7-methyl-N-(4-methyl-1-(methylamino)-1-oxopentan-2-yl)-5,6,7,8-tetrahydroimidazo[1,5-a]pyrazine-1-carboxamide], the 50% effective concentration (EC50) in assay [1] was greater than 10000 nM. For the same compound, the “+/− RCB2” value in assay [2] is on record as “−”.

`C[C@@H](NC(=O)c1nc(-c2ccccc2)n2c1CN(C(=O)C1CC1)CC2)C1CCCCC1` [Compound 132, (R)-N-(1-cyclohexylethyl)-7-(cyclopropanecarbonyl)-3-phenyl-5,6,7,8-tetrahydroimidazo[1,5-a]pyrazine-1-carboxamide] registered an EC50 in assay [1] greater than 10000 nM. Further, the “+/− RCB2” value in assay [2] is “−”.

Take `CNC(=O)[C@@H](NC(=O)c1nc(CCCN2CCOCC2)n2c1CN(C)CCC2)C(C)(C)C` [Compound 500, (S)-N-(3,3-dimethyl-1-(methylamino)-1-oxobutan-2-yl)-8-methyl-3-(3-morpholinopropyl)-6,7,8,9-tetrahydro-5H-imidazo[1,5-a][1,4]diazepine-1-carboxamide]: the EC50 in assay [1] and in assay [2] was greater than 10000 nM in each case.

For the compound `CNC(=O)[C@@H](NC(=O)c1nc(-c2ccc(OC)c(F)c2)n2c1CN(C)CCC2)C(C)(C)C` [Compound 404, (S)-N-(3,3-dimethyl-1-(methylamino)-1-oxobutan-2-yl)-3-(3-fluoro-4-methoxyphenyl)-8-methyl-6,7,8,9-tetrahydro-5H-imidazo[1,5-a][1,4]diazepine-1-carboxamide], the concentration for a half-maximal effect (EC50) in assay [1] and in assay [2] was greater than 10000 nM each time.

In assay [1], `CC(C)CN1CCn2c(-c3ccccc3)nc(C(=O)N[C@H](CO)C(C)(C)C)c2C1` [Compound 60, (S)-N-(1-hydroxy-3,3-dimethylbutan-2-yl)-7-isobutyl-3-phenyl-5,6,7,8-tetrahydroimidazo[1,5-a]pyrazine-1-carboxamide] registered an EC50 greater than 10000 nM. Further, the “+/− RCB2” value in assay [2] is “−”.

With `CN1CCn2c(-c3ccccc3)nc(C(=O)NCC(C)(C)CO)c2C1` [Compound 82, N-(3-hydroxy-2,2-dimethylpropyl)-7-methyl-3-phenyl-5,6,7,8-tetrahydroimidazo[1,5-a]pyrazine-1-carboxamide], the EC50 in assay [1] (setting [3]) was greater than 10000 nM; in assay [2] (groups >100 nM-10 μM and >10 μM, cAMP, CHO-K1 rCB2, read-out: EC50 RCB2), greater than 10000 nM.

In turn, `CCc1nc(C(=O)N[C@H](C(=O)NC)C(C)(C)C)c2n1CCCN(C)C2` [Compound 492, (S)-N-(3,3-dimethyl-1-(methylamino)-1-oxobutan-2-yl)-3-ethyl-8-methyl-6,7,8,9-tetrahydro-5H-imidazo[1,5-a][1,4]diazepine-1-carboxamide] registered an EC50 in assay [1] greater than 10000 nM. Besides, in assay [2], the “+/− RCB2” value is listed as “−”.

In turn, `CNC(=O)[C@@H](NC(=O)c1nc(-c2cccc(N(C)C)c2)n2c1CN(C)CCC2)C(C)(C)C` [Compound 382, (S)-N-(3,3-dimethyl-1-(methylamino)-1-oxobutan-2-yl)-3-(3-(dimethylamino)phenyl)-8-methyl-6,7,8,9-tetrahydro-5H-imidazo[1,5-a][1,4]diazepine-1-carboxamide] had an EC50 in assay [1] greater than 10000 nM. In addition, in assay [2], the “+/− RCB2” value is on record as “−”.

`CNC(=O)[C@@H](NC(=O)c1nc(-c2ccc(Br)cc2F)n2c1CN(C)CCC2)C(C)(C)C` [Compound 600, (S)-3-(4-bromo-2-fluorophenyl)-N-(3,3-dimethyl-1-(methylamino)-1-oxobutan-2-yl)-8-methyl-6,7,8,9-tetrahydro-5H-imidazo[1,5-a][1,4]diazepine-1-carboxamide]: in assay [1], the “+/− HCB1” value was “+”. In assay [2], the EC50 was greater than 10000 nM.

In assay [1], `CNC(=O)[C@@H](NC(=O)c1nc(-c2ccc(F)cc2)n2c1CN(C)CC2)C(C)(C)C` [Compound 247, (S)-N-(3,3-dimethyl-1-(methylamino)-1-oxobutan-2-yl)-3-(4-fluorophenyl)-7-methyl-5,6,7,8-tetrahydroimidazo[1,5-a]pyrazine-1-carboxamide] showed a 50% effective concentration (EC50) greater than 10000 nM. Moreover, in assay [2], the “+/− RCB2” value is reported as “+”.

In turn, `CNC(=O)[C@@H](NC(=O)c1nc(-c2csc3ccccc23)n2c1CN(C)CCC2)C(C)(C)C` [Compound 354, (S)-3-(benzo[b]thiophen-3-yl)-N-(3,3-dimethyl-1-(methylamino)-1-oxobutan-2-yl)-8-methyl-6,7,8,9-tetrahydro-5H-imidazo[1,5-a][1,4]diazepine-1-carboxamide] came in with a 50% effective concentration (EC50) in assay [1] greater than 10000 nM. In addition, the “+/− RCB2” value in assay [2] is listed as “−”.

`CNC(=O)[C@@H](NC(=O)c1nc(-c2ccccc2)n2c1CN(CCC(C)(C)C)CC2)C(C)(C)C` [Compound 54, (S)-N-(3,3-dimethyl-1-(methylamino)-1-oxobutan-2-yl)-7-(3,3-dimethylbutan)-3-phenyl-5,6,7,8-tetrahydroimidazo[1,5-a]pyrazine-1-carboxamide] displayed a concentration for a half-maximal effect (EC50) in assay [1] greater than 10000 nM. The “+/− RCB2” value in assay [2] is “−”.

`CC(C)CCNC(=O)c1nc(-c2ccc(Cl)cc2)n2c1CN(CC(C)C)CC2` [Compound 157, 3-(4-chlorophenyl)-7-isobutyl-N-isopentyl-5,6,7,8-tetrahydroimidazo[1,5-a]pyrazine-1-carboxamide] gave a half-maximal effective concentration (EC50) in assay [1] greater than 10000 nM. For the same compound, the “+/− RCB2” value in assay [2] was “−”.

As for `CN1CCCn2c(-c3ccc(F)cc3F)nc(C(=O)N[C@@H](CC(C)(C)C)C(N)=O)c2C1` [Compound 589, (S)-N-(1-amino-4,4-dimethyl-1-oxopentan-2-yl)-3-(2,4-difluorophenyl)-8-methyl-6,7,8,9-tetrahydro-5H-imidazo[1,5-a][1,4]diazepine-1-carboxamide], the “+/− HCB1” value in assay [1] is “+”. In addition, the “+/− RCB2” value in assay [2] is on record as “+”.

Compound `CN1CCCn2c(-c3ccccc3)nc(C(=O)N[C@H](C(N)=O)C(C)(C)C)c2C1` [Compound 582] registered an EC50 in assay [1] greater than 10000 nM. Besides, the “+/− RCB2” value in assay [2] is “+”.

`O=C(NC1CCCCC1)c1nc(-c2ccccc2)n2c1CN(C(=O)C1CC1)CC2` [Compound 136, N-cyclohexyl-7-(cyclopropanecarbonyl)-3-phenyl-5,6,7,8-tetrahydroimidazo[1,5-a]pyrazine-1-carboxamide]: the EC50 in assay [1] (setting [3]) is greater than 10000 nM. In addition, the “+/− RCB2” value in assay [2] is listed as “−”.
